Columns and labels:
[1] = system: Puccinia recondita; assay: Fungicidal test, Puccinia recondita (PUCCRT) on wheat, PRCO; assay type: in vivo; conditions: METHOD 2 (unbanded)
[2] = system: Meloidogyne incognita; assay: Nematode test, J2 infective juveniles of Meloidogyne incognita, mortality; conditions: 12.5 ppm; J2 infective juveniles suspended in solution; mortality after three days
Experimental: (§1) The activities of individual compounds of formula (I) were determined using a variety of pests. With the exception of nematodes, the pests were treated with a liquid composition containing 500 parts per million (ppm) by weight of a compound unless otherwise stated. Each composition was made by dissolving the compound in an acetone and ethanol (50:50 by volume) mixture and diluting the solution with water containing 0.05% by volume of a wetting agent, SYNPERONIC NP8, until the liquid composition contained the required concentration of the compound.
The test procedure for nematodes involved dissolving the compound in an acetone and ethanol (50:50 by volume) mixture and diluting the solution with water to obtain a final concentration of the compound of 12.5 ppm. J2 infective juveniles of Meloidogyne incognita were suspended in the solution in a glass vial and mortality assessed after a period of three days.

[3] = system: Phytophthora infestans lycopersici; assay type: in vivo; conditions: METHOD 2 (unbanded)
[4] = system: Musca domestica; conditions: 500 ppm by weight; knockdown assessed 15 minutes after treatment
Experimental: as §1
The test procedure adopted with regard to each pest, except nematodes, was essentially the same and composed supporting a number of the pests on a medium which was usually a substrate, a host plant or a foodstuff on which the pests feed, and treating either or both the medium and the pests with a composition. Pest mortality was assessed usually between three and five days after treatment Knockdown of housefly (Musca domestica) was assessed 15 minutes after treatment

Row | Structure (SMILES) | PUCCRT 1 d Prot/Foir PRCO [1] | MELGIN = Meloidogyne incognita, grading of mortality (score) [2] | PHYTIN 1 d Prot/Foir PRCO [3] | MUSCDO AC = Musca domestica (knockdown), score [4]
1 | Cc1nc2cc(CC(=O)N(C)c3snc(C)c3Cl)ccc2o1 [2(B3)] | 96 | 0 (0 indicates less than 40% mortality) | 100 | 9 (9 indicates 80-100% mortality)
2 | CCN(C(=O)Cc1ccc2oc(C)nc2c1)c1snc(C)c1Cl [2(C3)] | 74 | 0 (0 indicates less than 40% mortality) | 150 | 9 (9 indicates 80-100% mortality)
3 | CCCN(C(=O)Cc1ccc2oc(C)nc2c1)c1snc(C)c1Cl [2(D3)] | 96 | 0 (0 indicates less than 40% mortality) | 59 | 0 (0 indicates less than 40% mortality)
4 | C=CCN(C(=O)Cc1ccc2oc(C)nc2c1)c1snc(C)c1Cl [2(E3)] | 99 | 0 (0 indicates less than 40% mortality) | 98 | 0 (0 indicates less than 40% mortality)
5 | C#CCN(C(=O)Cc1ccc2oc(C)nc2c1)c1snc(C)c1Cl [2(F3)] | 90 | 0 (0 indicates less than 40% mortality) | 100 | 0 (0 indicates less than 40% mortality)
6 | COCN(C(=O)Cc1ccc2oc(C)nc2c1)c1snc(C)c1Cl [2(K3)] | 97 | 0 (0 indicates less than 40% mortality) | 98 | 9 (9 indicates 80-100% mortality)
7 | CCOCN(C(=O)Cc1ccc2oc(C)nc2c1)c1snc(C)c1Cl [2(L3)] | 93 | 0 (0 indicates less than 40% mortality) | 82 | 9 (9 indicates 80-100% mortality)
8 | COCCOCN(C(=O)Cc1ccc2oc(C)nc2c1)c1snc(C)c1Cl [2(M3)] | 68 | 0 (0 indicates less than 40% mortality) | 83 | 0 (0 indicates less than 40% mortality)
9 | COCN(C(=O)Cc1ccc2oc(CC(C)(C)C)nc2c1)c1snc(C)c1Cl [15(K3)] | – | 0 (0 indicates less than 40% mortality) | – | 0 (0 indicates less than 40% mortality)
10 | CC=Cc1nc2cc(CC(=O)Nc3snc(C)c3Cl)ccc2o1 [45(A3)] | – | 0 (0 indicates less than 40% mortality) | – | 9 (9 indicates 80-100% mortality)
11 | Cc1nsc(NC(=O)Cc2ccc3oc(C(F)(F)C(F)(F)Cl)nc3c2)c1Cl [86(A3)] | – | 0 (0 indicates less than 40% mortality) | – | –
12 | Cc1nsc(NC(=O)Cc2ccc3oc(Cl)nc3c2)c1Cl [174(A3)] | – | 0 (0 indicates less than 40% mortality) | – | 0 (0 indicates less than 40% mortality)
13 | Cc1nsc(NC(=O)Cc2ccc3oc(-c4ccc([N+](=O)[O-])cc4Cl)nc3c2)c1Cl [267(A3)] | – | 0 (0 indicates less than 40% mortality) | – | –
14 | Cc1nsc(NC(=O)Cc2ccc3oc(-c4ccccc4F)nc3c2)c1Cl [272(A3)] | – | 0 (0 indicates less than 40% mortality) | – | –
15 | Cc1nsc(NC(=O)Cc2ccc3oc(Cc4cccs4)nc3c2)c1Cl [334(A3)] | – | 0 (0 indicates less than 40% mortality) | – | –
16 | Cc1nsc(NC(=O)Cc2ccc3oc(-c4cccnc4Cl)nc3c2)c1Cl [343(A3)] | – | 0 (0 indicates less than 40% mortality) | – | –
17 | Cc1nsc(NC(=O)Cc2ccc3oc(-c4ccno4)nc3c2)c1Cl [349(A3)] | – | 0 (0 indicates less than 40% mortality) | – | –

— patent US6544989B2, “Benzazoles: benzoxazole, benzthiazole and benzimidazole derivatives” (Syngenta Limited, priority 1998, dated 2003)
